# Compound: Cc1cnc(Nc2ccc(OCCN3CCCC3)cc2)nc1Nc1cccc(S(=O)(=O)NC(C)(C)C)c1 [Fedratinib] + CS(=O)(=O)N1CCN(Cc2cc3nc(-c4cccc5[nH]ncc45)nc(N4CCOCC4)c3s2)CC1 [Pictilisib] (partner 1 µM)
# Experiment: relative viability (nuclei count vs DMSO), 5 days (fraction); higher = more cells survive
# Details: first compound 1 µM
# Procedure, shortened: (§1)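 Dosing by pin tool came one day after lung cancer cell lines were seeded in 1536-well plates, using either one drug or a fixed anchor-drug dose plus five library-drug doses (not always all listed) in √10 steps. After 5 days, nuclei were counted on 4× images. Relative viability is treated-well nuclei count divided by vehicle-well nuclei count, and values are medians of duplicate plates.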
row,Cell Line,relative viability
1,LXF-289,0.694
2,NCI-H23,0.156
3,NCI-H647,0.309
4,NCI-H1651,0.0696
5,EPLC-272H,0.0901
6,NCI-H1792,0.227
7,NCI-H1355,0.382
8,NCI-H3122,0.152
9,NCI-H1437,0.119
10,NCI-H1755,0.399
11,HCC-15,0.28
12,PC-14,0.438
13,EKVX,0.504
14,LC-2-ad,0.115
15,NCI-H1975,0.15
16,RERF-LC-KJ,0.462
17,ABC-1,0.318

# Compound: COC1=CC=C(C=C1)COC2=C(C=C(C=C2)CC3=CN=C(N=C3N)N)OC [GW-2580] + O=C(c1cc(Cc2n[nH]c(=O)c3ccccc23)ccc1F)N1CCN(C(=O)C2CC2)CC1 [Olaparib] (partner 8 µM)
# Experiment: as above
# Details: first compound 0.08 µM
# Procedure, shortened: as §1
row,Cell Line,relative viability
1,ChaGo-K-1,0.423
2,NCI-H2405,0.911
3,HOP-62,0.512
4,HCC-44,1.04
5,LU99A,0.259
6,BEN,0.877
7,HARA,0.624
8,HCC-78,0.818
9,NCI-H322M,0.76
10,LCLC-97TM1,0.379
11,A-427,0.76
12,NCI-H441,0.644
13,NCI-H1734,0.65
14,NCI-H460,0.379
15,NCI-H2347,0.538
16,201T,0.896
17,NCI-H1915,0.222
18,HCC-827,0.692

row,Cell Line,relative viability
1,LXF-289,1.24
2,NCI-H23,0.329
3,NCI-H647,0.776
4,NCI-H1651,0.175
5,EPLC-272H,0.819
6,NCI-H1792,0.596
7,NCI-H1355,0.804
8,NCI-H3122,0.682
9,NCI-H1437,0.672
10,NCI-H1755,0.984
11,HCC-15,0.841
12,PC-14,0.243
13,EKVX,0.905
14,LC-2-ad,0.723
15,NCI-H1975,0.815
16,RERF-LC-KJ,1
17,ABC-1,0.774

# Same assay, conditions: first compound 0.8 µM
row,Cell Line,relative viability
1,ChaGo-K-1,0.457
2,NCI-H2405,0.981
3,HOP-62,0.809
4,HCC-44,1.05
5,LU99A,0.264
6,BEN,1.12
7,HARA,1.19
8,HCC-78,0.919
9,NCI-H322M,0.956
10,LCLC-97TM1,0.579
11,A-427,0.711
12,NCI-H441,0.582
13,NCI-H1734,0.589
14,NCI-H460,0.508
15,NCI-H2347,0.616
16,201T,0.73
17,NCI-H1915,0.233
18,HCC-827,0.642

row,Cell Line,relative viability
1,LXF-289,1.14
2,NCI-H23,0.329
3,NCI-H647,0.667
4,NCI-H1651,0.183
5,EPLC-272H,0.861
6,NCI-H1792,0.929
7,NCI-H1355,0.836
8,NCI-H3122,0.739
9,NCI-H1437,0.662
10,NCI-H1755,0.905
11,HCC-15,0.628
12,PC-14,0.247
13,EKVX,0.986
14,LC-2-ad,0.727
15,NCI-H1975,0.864
16,RERF-LC-KJ,1.04
17,ABC-1,0.634

# Same assay, conditions: first compound 2.53 µM
row,Cell Line,relative viability
1,ChaGo-K-1,0.388
2,NCI-H2405,0.797
3,HOP-62,0.179
4,HCC-44,1.04
5,LU99A,0.261
6,BEN,1.03
7,HARA,0.895
8,HCC-78,0.757
9,NCI-H322M,0.753
10,LCLC-97TM1,0.313
11,A-427,0.756
12,NCI-H441,0.555
13,NCI-H1734,0.585
14,NCI-H460,0.516
15,NCI-H2347,0.54
16,201T,0.887
17,NCI-H1915,0.293
18,HCC-827,0.632

row,Cell Line,relative viability
1,LXF-289,1.06
2,NCI-H23,0.321
3,NCI-H647,0.444
4,NCI-H1651,0.196
5,EPLC-272H,0.755
6,NCI-H1792,0.255
7,NCI-H1355,0.669
8,NCI-H3122,0.675
9,NCI-H1437,0.631
10,NCI-H1755,0.737
11,HCC-15,0.66
12,PC-14,0.242
13,EKVX,0.812
14,LC-2-ad,0.702
15,NCI-H1975,0.874
16,RERF-LC-KJ,0.888
17,ABC-1,1.43

# Same assay, conditions: first compound 8 µM
row,Cell Line,relative viability
1,ChaGo-K-1,0.393
2,NCI-H2405,0.712
3,HOP-62,0.402
4,HCC-44,1.03
5,LU99A,0.269
6,BEN,0.962
7,HARA,0.726
8,HCC-78,0.861
9,NCI-H322M,0.626
10,LCLC-97TM1,0.428
11,A-427,0.737
12,NCI-H441,0.585
13,NCI-H1734,0.636
14,NCI-H460,0.353
15,NCI-H2347,0.595
16,201T,0.794
17,NCI-H1915,0.259
18,HCC-827,0.617

row,Cell Line,relative viability
1,LXF-289,1.19
2,NCI-H23,0.273
3,NCI-H647,0.71
4,NCI-H1651,0.197
5,EPLC-272H,0.605
6,NCI-H1792,0.44
7,NCI-H1355,0.691
8,NCI-H3122,0.648
9,NCI-H1437,0.602
10,NCI-H1755,0.785
11,HCC-15,0.75
12,PC-14,0.295
13,EKVX,0.89
14,LC-2-ad,0.722
15,NCI-H1975,0.806
16,RERF-LC-KJ,0.861
17,ABC-1,0.824

# From the supplement of paper PMC10307832
